Here are results for 23 compounds from US11608335B2, “Somatostatin modulators and uses thereof” (CRINETICS PHARMACEUTICALS, INC., priority 2018, dated 2023).

Some results are limits rather than exact numbers.

As a reminder, the EC50 is the concentration needed to bring the measured effect to its halfway point.

The first test deals with human somatostatin receptor subtype 5 (Homo sapiens, UniProt P35346). The test can be described thus: cAMP assay for SST5R (inhibition of cAMP via human SST5 receptor).
Chain of human somatostatin receptor subtype 5 (P35346 whole entry): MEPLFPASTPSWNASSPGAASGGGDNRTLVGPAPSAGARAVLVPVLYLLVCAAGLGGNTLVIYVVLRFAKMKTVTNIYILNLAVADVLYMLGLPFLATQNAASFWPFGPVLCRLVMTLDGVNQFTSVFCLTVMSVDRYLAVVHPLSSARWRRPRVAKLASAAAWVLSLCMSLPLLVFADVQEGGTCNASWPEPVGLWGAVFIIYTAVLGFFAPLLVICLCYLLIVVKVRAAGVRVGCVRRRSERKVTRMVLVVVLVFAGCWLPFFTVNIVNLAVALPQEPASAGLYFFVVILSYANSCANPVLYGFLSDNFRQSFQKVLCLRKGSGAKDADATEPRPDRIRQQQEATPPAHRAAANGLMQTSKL
Conditions: not given
For the compound `N#Cc1cccc(-c2cncc(-c3nc4cccc(F)c4[nH]3)c2N2C[C@@H](N)[C@H](c3ccccc3)C2)c1` (racemic) [Compound 2-56, 3-{4-[trans-3-amino-4-phenylpyrrolidin-1-yl]-5-(4-fluoro-1H-1,3-benzodiazol-2-yl)pyridin-3-yl}benzonitrile], the EC50 is 100 to 1000 nM.

`N#Cc1cccc(-c2cncc(-c3nc4cccc(F)c4[nH]3)c2N2C[C@@H](N)[C@@H](O)C2)c1` (racemic) [Compound 2-68, 3-{4-[cis-3-amino-4-hydroxypyrrolidin-1-yl]-5-(4-fluoro-1H-1,3-benzodiazol-2-yl)pyridin-3-yl}benzonitrile]: the EC50 was in the range of 10 to 100 nM. Compound `N#Cc1cccc(-c2cncc(-c3nc4c(F)cccc4[nH]3)c2N2C[C@@H](N)[C@H](C(N)=O)C2)c1` (racemic) [Compound 2-69, trans-4-amino-1-[3-(3-cyanophenyl)-5-(4-fluoro-1H-1,3-benzodiazol-2-yl)pyridin-4-yl]pyrrolidine-3-carboxamide] gave an EC50 above 1000 nM. `N#Cc1cccc(-c2cncc(-c3nc4c(F)cccc4[nH]3)c2N2C[C@@H](N)[C@H](O)C2)c1` (racemic) [Compound 2-81, 3-{4-[trans-3-amino-4-hydroxypyrrolidin-1-yl]-5-(4-fluoro-1H-1,3-benzodiazol-2-yl)pyridin-3-yl}benzonitrile] returned an EC50 of 10 to 100 nM. Same read-out and setting: for `N#Cc1cccc(-c2cncc(-c3nc4cccc(F)c4[nH]3)c2N2C[C@H](CO)[C@@H](N)C2)c1` (racemic) [Compound 2-89, 3-{4-[trans-3-amino-4-(hydroxymethyl)pyrrolidin-1-yl]-5-(4-fluoro-1H-1,3-benzodiazol-2-yl)pyridin-3-yl}benzonitrile] the value was 10 to 100 nM; for `Cc1cc(F)cc(-c2cncc(-c3nc4cc(C#N)ccc4[nH]3)c2N2CC(CN)C2)c1` [Compound 1-8, 2-{4-[3-(aminomethyl)azetidin-1-yl]-5-(3-fluoro-5-methylphenyl)pyridin-3-yl}-1H-1,3-benzodiazole-5-carbonitrile], 100 to 1000 nM; for `COc1ccc2[nH]c(-c3cncc(-c4cc(C)cc(F)c4)c3N3CC(CN)C3)nc2c1` [Compound 1-12, 1-{1-[3-(3-fluoro-5-methylphenyl)-5-(5-methoxy-1H-1,3-benzodiazol-2-yl)pyridin-4-yl]azetidin-3-yl}methanamine], 100 to 1000 nM. The same measure, in the same setting: the value for `Cc1cc(F)cc(-c2cncc(-c3nc4cc(F)c(F)cc4[nH]3)c2N2CC(CN)C2)c1` [Compound 1-13, 1-{1-[3-(5,6-difluoro-1H-1,3-benzodiazol-2-yl)-5-(3-fluoro-5-methylphenyl)pyridin-4-yl]azetidin-3-yl}methanamine] was 10 to 100 nM; that for `Cc1cc(F)cc(-c2cncc(-c3nc4cc(F)c(Cl)cc4[nH]3)c2N2CC(CN)C2)c1` [Compound 1-14, 1-{1-[3-(5-chloro-6-fluoro-1H-1,3-benzodiazol-2-yl)-5-(3-fluoro-5-methylphenyl)pyridin-4-yl]azetidin-3-yl}methanamine] was 10 to 100 nM. Still for that read-out and setting: for `COc1cc(F)cc2nc(-c3cncc(-c4cc(C)cc(F)c4)c3N3CC(CN)C3)[nH]c12` [Compound 1-15, 1-{1-[3-(6-fluoro-4-methoxy-1H-1,3-benzodiazol-2-yl)-5-(3-fluoro-5-methylphenyl)pyridin-4-yl]azetidin-3-yl}methanamine] the value was 10 to 100 nM; for `Cc1cc(F)cc(-c2cncc(-c3nc4cc(C#N)cc(F)c4[nH]3)c2N2CC(CN)C2)c1` [Compound 1-16, 2-{4-[3-(aminomethyl)azetidin-1-yl]-5-(3-fluoro-5-methylphenyl)pyridin-3-yl}-4-fluoro-1H-1,3-benzodiazole-6-carbonitrile], 100 to 1000 nM. As to `Cc1cc(F)cc(-c2cncc(-c3nc4cc(C#N)c(F)cc4[nH]3)c2N2CC(CN)C2)c1` [Compound 1-17, 2-{4-[3-(aminomethyl)azetidin-1-yl]-5-(3-fluoro-5-methylphenyl)pyridin-3-yl}-6-fluoro-1H-1,3-benzodiazole-5-carbonitrile], the EC50 is 100 to 1000 nM. The same measure, in the same setting: for `Cc1cc(F)cc(-c2cncc(-c3nc4cc(Cl)cc(F)c4[nH]3)c2N2CC(CN)C2)c1` [Compound 1-18, 1-{1-[3-(6-chloro-4-fluoro-1H-1,3-benzodiazol-2-yl)-5-(3-fluoro-5-methylphenyl)pyridin-4-yl]azetidin-3-yl}methanamine] the value was 10 to 100 nM; for `Cc1cc(C)cc(-c2cncc(-c3nc4cc(F)cc(F)c4[nH]3)c2N2CC(CN)C2)c1` [Compound 1-19, 1-{1-[3-(4,6-difluoro-1H-1,3-benzodiazol-2-yl)-5-(3,5-dimethylphenyl)pyridin-4-yl]azetidin-3-yl}methanamine], 10 to 100 nM. The same measure, in the same setting: for `Cc1cc(Cl)cc(-c2cncc(-c3nc4cc(F)cc(F)c4[nH]3)c2N2CC(CN)C2)c1` [Compound 1-20, 1-{1-[3-(3-chloro-5-methylphenyl)-5-(4,6-difluoro-1H-1,3-benzodiazol-2-yl)pyridin-4-yl]azetidin-3-yl}methanamine] the value was below 10 nM; for `NCC1CN(c2c(-c3cc(F)cc(F)c3)cncc2-c2nc3cc(F)cc(F)c3[nH]2)C1` [Compound 1-21, 1-{1-[3-(4,6-difluoro-1H-1,3-benzodiazol-2-yl)-5-(3,5-difluorophenyl)pyridin-4-yl]azetidin-3-yl}methanamine], below 10 nM; for `Cc1cc(F)cc(-c2cncc(-c3nc4cnccc4[nH]3)c2N2CC(CN)C2)c1` [Compound 1-22, 1-{1-[3-(3-fluoro-5-methylphenyl)-5-{3H-imidazo[4,5-c]pyridin-2-yl}pyridin-4-yl]azetidin-3-yl}methanamine], 100 to 1000 nM. Same read-out and setting: for `Cc1cc(F)cc(-c2cncc(-c3nc4cccnc4[nH]3)c2N2CC(CN)C2)c1` [Compound 1-23, 1-{1-[3-(3-fluoro-5-methylphenyl)-5-{1H-imidazo[4,5-b]pyridin-2-yl}pyridin-4-yl]azetidin-3-yl}methanamine] the value was 100 to 1000 nM.

With `Cc1cc(F)cc(-c2cncc(-c3nc4c(F)cccc4n3C)c2N2CC(CN)C2)c1` [Compound 1-24, 1-{1-[3-(4-fluoro-1-methyl-1H-1,3-benzodiazol-2-yl)-5-(3-fluoro-5-methylphenyl)pyridin-4-yl]azetidin-3-yl}methanamine], the EC50 is 10 to 100 nM. Same read-out and setting: the value for `Cc1cc(F)cc(-c2cncc(-c3nc4cccc(F)c4n3C)c2N2CC(CN)C2)c1` [Compound 1-25, 1-{1-[3-(7-Fluoro-1-methyl-1H-1,3-benzodiazol-2-yl)-5-(3-fluoro-5-methylphenyl)pyridin-4-yl]azetidin-3-yl}methanamine] was 10 to 100 nM. Still for that read-out and setting: for `Cc1cc(F)cc(-c2cncc(-c3nc4cc(F)cc(F)c4[nH]3)c2N2CC(O)(CN)C2)c1` [Compound 1-26, 3-(aminomethyl)-1-[3-(4,6-difluoro-1H-1,3-benzodiazol-2-yl)-5-(3-fluoro-5-methylphenyl)pyridin-4-yl]azetidin-3-ol] the value was 100 to 1000 nM; for `NCC1CN(c2c(-c3ccccc3)cncc2-c2nc3c(F)cc(F)cc3[nH]2)C1` [Compound 1-27, 1-{1-[3-(4,6-difluoro-1H-1,3-benzodiazol-2-yl)-5-phenylpyridin-4-yl]azetidin-3-yl}methanamine], 10 to 100 nM.

Still in this test, the particulars now being: SST5 over SST2, given as number (comparison compounds).
Consider `COc1cc(Cl)cc2[nH]c(-c3cncc(-c4cc(C)cc(F)c4)c3N3CCC(N)CC3)nc12`, for which the “Fold selectivity for SST5 vs SST2” value is reported as 0.00004.
